The source of these data is patent US20030220361A1, “Nicotinamide derivatives and a tiotropium salt in combination for the treatment of diseases” (priority 2002, published 2003).

The subject of the assay is TNFα release from human peripheral blood mononuclear cells. As to the kind of experiment: Inhibition of LPS-stimulated TNFα release from human peripheral blood mononuclear cells (TNFα screen). Format: cell-based. The settings on record: human PBMC, LPS stimulation, 18 hours incubation, TNFα in supernatant by ELISA. How it is done: Venous blood is collected from healthy volunteers and the mononuclear cells purified by centrifugation through Histopaque (Ficoll) cushions. TNFα production from these cells is stimulated by addition of lipopolysaccharide. After 18 hours incubation in the presence of LPS, the cell supernatant is removed and the concentration of TNFa in the supernatant determined by ELISA. Addition of PDE4 inhibitors reduces the. amount of TNFQ produced. An IC50 is determined which is equal to the concentration of compound that gives 50% inhibition TNFα production as compared to the LPS stimulated control wells.

Regarding `COc1ccc(C(=O)N[C@H]2CC[C@H](NC(=O)c3cc(F)cnc3Oc3ccc(F)cc3)CC2)c(O)c1` [Example 23], it took 7.8 nM to reach half-maximal inhibition (IC50).
Take `O=C(NC1CCC(NC(=O)c2c(O)cccc2F)CC1)c1cc(F)cnc1Oc1ccc(F)c(F)c1` (stereo not drawn) [Example 41, Anti-5-Fluoro-2-(3,4-difluoro-phenoxy)-N-[4-(2-fluoro-6-hydroxy-benzoylmino)-cyclohexyl]-Nicotinamide]: the IC50 worked out at 4.9 nM. Against the preceding molecule, the IC50 is about 1.6-fold lower.
Consider `Cc1ccc(O)c(C(=O)N[C@H]2CC[C@@H](NC(=O)c3cc(F)cnc3Oc3ccc(F)c(F)c3)CC2)c1` [Example 174, Syn-2-(3.4-Difluoro-phenoxy)-5-fluoro-N-[4-(2-hydroxy-5-methyl-benzoylamino)-cyclohexyl]-nicotinamide], for which the IC50 came to 0.014 nM.
For `O=C(N[C@H]1C[C@H]2CC[C@@H](C1)N2C(=O)Cc1ccc(O)cc1)c1cc(F)cnc1Oc1ccc(F)cc1` [Example 92, endo-5-Fluoro-2-(4-fluoro-phenoxy)-N-{8-[2-(4-hydroxy-phenyl)-acetyl]-8-aza-bicyclo[3.2.1]oct-3-yl}-nicotinamide] the value was 185 nM.
In the case of `COc1ccc(C(=O)N[C@H]2CC[C@@H](NC(=O)c3cc(F)cnc3Oc3ccc4c(c3)CCC4)CC2)c(O)c1` [Example 159], the IC50 was 4.6 nM. Compared with the last molecule, the IC50 is about 40-fold lower.
Consider `O=C(Cc1ccccc1O)N[C@H]1CC[C@@H](NC(=O)c2cc(F)cnc2Oc2ccc(F)cc2)CC1` [Example 51], for which the IC50 came to 2.09 nM.
Take `Cc1ccc(O)c(C(=O)N[C@H]2CC[C@H](NC(=O)c3cc(F)cnc3Oc3ccc4c(c3)OCO4)CC2)c1` [Example 8]: the IC50 stood at 22 nM. Compared with the last molecule, the IC50 is about 11-fold higher.
Regarding `O=C(NC1CCN(C(=O)c2cc(F)ccc2O)CC1)c1cc(F)cnc1Oc1ccc(F)cc1` [Example 85], the IC50 came out at 28 nM. The IC50 values of the last two molecules are within 1.5-fold of each other.
As to `O=C(N[C@H]1CC[C@H](NC(=O)c2ncccc2O)CC1)c1cc(F)cnc1Oc1ccc(F)cc1` [Example 27], 39.5 nM corresponded to half-maximal inhibition (IC50).
For `COc1cc(C(=O)O)ccc1C(=O)N[C@H]1CC[C@@H](NC(=O)c2cc(F)cnc2Oc2ccc(F)cc2)CC1` [Example 137] the value was 16 nM; for `COc1ccc(C(=O)N[C@H]2CC[C@@H](NC(=O)c3cc(F)cnc3Oc3ccc(F)c(F)c3)CC2)c(O)c1` [Example 155], 0.09 nM.
`O=C(N[C@H]1CC[C@@H](C(=O)NCc2ccccc2O)CC1)c1cccnc1Oc1ccc(F)cc1` [Example 172, Syn-2-(4-Fluoro-phenoxy)-N-[4-(2-hydroxy-benzyl-carba-moyl)-cyclohexyl]-nicotinamide] displayed a concentration for half-maximal inhibition (IC50) of 4.3 nM.
For the molecule `O=C(N[C@H]1CC[C@H](NC(=O)c2ccc3ccccc3c2O)CC1)c1cc(F)cnc1Oc1ccc(F)cc1` [Example 22], half-maximal inhibition (IC50) was put at 156 nM.
`Cc1cccc(C(=O)NC2CCC(NC(=O)c3cc(F)cnc3Oc3ccc(Cl)c(F)c3)CC2)c1O` (centres unmarked) [Example 210] registered an IC50 of 13 nM.
`COc1cccc(Oc2ncc(F)cc2C(=O)N[C@H]2CC[C@@H](NC(=O)c3ccc(OC)cc3O)CC2)c1` [Example 197] displayed an IC50 of 1.8 nM. Against the preceding molecule, the IC50 is about 7.2-fold lower.
With `COc1ccc(C(=O)N[C@H]2CC[C@@H](NC(=O)c3cc(F)cnc3Oc3ccc(F)cc3)CC2)cc1O` [Example 54] the figure was 2.8 nM.
The molecule `O=C(Cc1cccc(O)c1)N[C@H]1CC[C@H](NC(=O)c2cc(F)cnc2Oc2ccc(F)cc2)CC1` [Example 25] showed a half-maximal inhibitory concentration (IC50) of 8.5 nM.
For `O=C(NCc1ccccc1O)NC1CCC(NC(=O)c2cc(F)cnc2Oc2ccc(F)cc2)CC1` (stereo not drawn) [Example 72, Syn-5-Fluoro-2-(4-fluoro-phenoxy)-N-{4-[3-(2-hydroxy-benzyl)-ureido]-cyclohexyl}-nicotinamide] the value was 1.1 nM.
For `O=C(N[C@H]1CC[C@@H](NC(=O)c2cc(F)cnc2Oc2ccc(F)c(F)c2)CC1)c1ccc(Cl)cc1O` [Example 186], the IC50 was 0.2 nM.
With `O=C(CCc1cccc(O)c1)N[C@H]1CC[C@H](NC(=O)c2cc(F)cnc2Oc2ccc(F)cc2)CC1` [Example 28] the figure was 217 nM; with `COc1ccc(C(=O)N[C@H]2CC[C@@H](NC(=O)c3cc(F)cnc3Oc3cccc(F)c3)CC2)c(O)c1` [Example 152], 0.2 nM.
With `Cc1ccc(C(=O)NC2CCC(NC(=O)c3cc(F)cnc3Oc3ccc(F)cc3)CC2)c(O)c1` (stereo not drawn) [Example 47, Syn-5-Fluoro-2-(4-fluoro-phenoxy)-N-[4-(2-hydroxy-4-methyl-benzoylamino)-cyclohexyl]-nicotinamide] the figure was 0.28 nM.
Regarding `O=C(NC1CCC(NC(=O)C(O)C2CCCCC2)CC1)c1cc(F)cnc1Oc1ccc(F)cc1` (centres unmarked) [Example 106], inhibition was half-maximal at 3.6 nM (IC50).
`O=C(N[C@H]1CC[C@@H](NC(=O)c2cc(F)cnc2Oc2ccc(F)c(F)c2)CC1)c1ccccc1O` [Example 190] came in with an IC50 of 0.06 nM. Against the preceding molecule, the IC50 is about 60-fold lower.
For `O=C(N[C@H]1CC[C@@H](C(=O)NCc2ccc(O)cc2F)CC1)c1cccnc1Oc1ccc(F)cc1` [Example 173, Syn-N-[4-(2-Fluoro-4-hydroxy-benzyl-carbamoyl)-cyclohexyl]-2-(4-fluoro-phenoxy)-nicotinamide], the IC50 was 2.1 nM.
For the molecule `O=C(N[C@H]1CC[C@H](NC(=O)c2cc(F)cnc2Oc2ccc3c(c2)OCO3)CC1)c1ccc(O)cc1` [Example 6], the IC50 was 23.5 nM. Against the preceding molecule, the IC50 is about 11-fold higher.
With `O=C(N[C@H]1CC[C@H](NC(=O)c2c(O)cccc2F)CC1)c1cc(F)cnc1Oc1ccc(F)cc1` [Example 17] the figure was 8.5 nM.
With `Cc1ccc(C(=O)N[C@H]2CC[C@@H](NC(=O)c3cc(F)cnc3Oc3ccc(F)c(Cl)c3)CC2)c(O)c1` [Example 200] the figure was 0.05 nM; with `O=C(O)c1ccccc1C(=O)N1[C@@H]2CC[C@H]1C[C@H](NC(=O)c1cc(F)cnc1Oc1ccc(F)cc1)C2` [Example 100, exo-2-(3-{[5-Fluoro-2-(4-fluoro-phenoxy)-pyridine-3-carbonyl]-amino}8-aza-bicyclo[3.2.1]octane-8-carbonyl}-benzoic Acid], 56 nM.
Molecule `CC(=O)N(Cc1ccccc1O)C1CCC(NC(=O)c2cc(F)cnc2Oc2ccc(F)cc2)CC1` (stereo not drawn) [Example 44, Anti-N-{4-[Acetyl-(2-hydroxybenzyl)-amino]-cyclohexyl}-5-fluoro-2-(4-fluoro-phenoxy)-nicotinamide] yielded an IC50 of 91 nM. Compared with the last molecule, the IC50 is about 1.6-fold higher.
The molecule `O=C(N[C@H]1CC[C@@H](NC(=O)c2cc(F)cnc2Oc2ccc(F)cc2)CC1)c1cccc(O)c1` [Example 48] yielded an IC50 of 1.66 nM.
The molecule `CC(C)(CC(=O)N[C@H]1CC[C@@H](NC(=O)c2cc(F)cnc2Oc2ccc(F)cc2)CC1)C(=O)O` [Example 129] displayed an IC50 of 30 nM.
For `CCc1cccc(Oc2ncc(F)cc2C(=O)N[C@H]2CC[C@@H](NC(=O)c3ccc(OC)cc3O)CC2)c1` [Example 157] the value was 2 nM; for `Cc1ccc(C(=O)N[C@H]2CC[C@@H](NC(=O)c3cc(F)cnc3Oc3cccc(C(F)(F)F)c3)CC2)c(O)c1` [Example 199], 0.7 nM.
For `COc1cc(O)c(C(=O)N[C@H]2CC[C@H](NC(=O)c3cc(F)cnc3Oc3ccc(F)cc3)CC2)c(OC)c1` [Example 30] the value was 2.6 nM.
`Cc1cccc(C(=O)NC2CCC(NC(=O)c3cc(F)cnc3Oc3ccc(F)c(F)c3)CC2)c1O` (centres unmarked) [Example 208] displayed an IC50 of 0.09 nM.
For `O=C(O)c1ccnc(C(=O)N[C@H]2CC[C@@H](NC(=O)c3cc(F)cnc3Oc3ccc(F)cc3)CC2)c1` [Example 135], inhibition was half-maximal at 74 nM (IC50).
Regarding `Cc1ccc(C(=O)N[C@H]2CC[C@@H](NC(=O)c3cc(F)cnc3Oc3ccc(F)cc3C)CC2)c(O)c1` [Example 203], the IC50 came out at 7 nM.
For `Cc1ccc(C(=O)N[C@H]2CC[C@@H](NC(=O)c3cc(F)cnc3Oc3cccc(Br)c3)CC2)c(O)c1` [Example 201] the value was 0.3 nM; for `O=C(NC1CCN(C(=O)c2ccc3ccccc3c2O)CC1)c1cc(F)cnc1Oc1ccc(F)cc1` [Example 81], 30 nM; for `Cc1ccc(C(=O)NC2CCC(NC(=O)c3cc(F)cnc3Oc3cc(F)cc(F)c3)CC2)c(O)c1` (centres unmarked) [Example 217], 0.3 nM.
`O=C(Cc1ccc(O)c(Cl)c1)N[C@H]1CC[C@@H](NC(=O)c2cc(F)cnc2Oc2ccc(F)cc2)CC1` [Example 58]: the IC50 was found to be 3.5 nM.
For the molecule `O=C(N[C@H]1CC[C@H](NC(=O)c2cc(F)cnc2Oc2ccc(F)cc2)CC1)c1cc(Cl)ccc1O` [Example 20], the IC50 turned out to be 113 nM.
`O=C(N[C@H]1CC[C@@H](NC(=O)c2cc(F)cnc2Oc2ccc(F)c(F)c2)CC1)c1cc(Cl)c(Cl)cc1O` [Example 193]: half-maximal inhibition (IC50) required 9 nM.
With `Cc1ccc(C(=O)N2CCC(NC(=O)c3cc(F)cnc3Oc3ccc(F)cc3)CC2)c(O)c1` [Example 79, 5-Fluoro-2-(4-fluoro-phenoxy)-N-[1-(2-hydroxy-4-methyl-benzoyl)-piperidin-4-yl]-nicotinamide], half-maximal inhibition (IC50) was put at 25.5 nM.
Molecule `COC(=O)c1cccc(C(=O)N[C@H]2CC[C@@H](NC(=O)c3cc(F)cnc3Oc3ccc(F)cc3)CC2)n1` [Example 123] showed an IC50 of 21 nM.
On to `O=C(N[C@H]1CC[C@H](NC(=O)c2cc(F)cnc2Oc2ccc(F)cc2)CC1)c1cc(O)ccc1O` [Example 26], for which the IC50 worked out at 5.4 nM.
`O=C(N[C@H]1CC[C@@H](NC(=O)c2c(O)cccc2O)CC1)c1cc(F)cnc1Oc1ccc(F)c(F)c1` [Example 178] had an IC50 of 0.15 nM.
For `O=C(NC1CCN(C(=O)c2cccc(O)c2)CC1)c1cc(F)cnc1Oc1ccc(F)cc1` [Example 80], the midpoint of inhibition, the IC50, lay at 7.4 nM.
Take `COc1ccc(C(=O)N[C@H]2CC[C@@H](NC(=O)c3cc(F)cnc3Oc3ccc(F)c(Cl)c3)CC2)c(O)c1` [Example 156]: the IC50 was found to be 0.14 nM.
The molecule `O=C(NC1CCN(C(=O)Cc2ccc(O)cc2)CC1)c1cc(F)cnc1Oc1ccc(F)cc1` [Example 88] registered an IC50 of 114 nM. This IC50 is about 810-fold higher than that of the molecule before.
For `O=C(Cc1ccc(O)c(F)c1)N[C@H]1CC[C@@H](NC(=O)c2cc(F)cnc2Oc2ccc(F)cc2)CC1` [Example 56] the value was 1.9 nM.
As for `COc1ccc(O)c(C(=O)N[C@H]2CC[C@@H](NC(=O)c3cc(F)cnc3Oc3ccc(F)c(F)c3)CC2)c1` [Example 187], half-maximal inhibition (IC50) required 0.006 nM.
